# Results taken from PubChem BioAssay AID690 (Sanford-Burnham Center for Chemical Genomics, 2007).
# Biological target: Alkaline phosphatase, placental type (Homo sapiens) (UniProt P05187)
# Experiment: PLAP enzyme inhibitors, biochemical, luminescence, HTS (AID 690)
# Conditions: purified PLAP, luminescent substrate
# Alkaline phosphatase, placental type (Homo sapiens), sequence (P05187 whole entry, looked up): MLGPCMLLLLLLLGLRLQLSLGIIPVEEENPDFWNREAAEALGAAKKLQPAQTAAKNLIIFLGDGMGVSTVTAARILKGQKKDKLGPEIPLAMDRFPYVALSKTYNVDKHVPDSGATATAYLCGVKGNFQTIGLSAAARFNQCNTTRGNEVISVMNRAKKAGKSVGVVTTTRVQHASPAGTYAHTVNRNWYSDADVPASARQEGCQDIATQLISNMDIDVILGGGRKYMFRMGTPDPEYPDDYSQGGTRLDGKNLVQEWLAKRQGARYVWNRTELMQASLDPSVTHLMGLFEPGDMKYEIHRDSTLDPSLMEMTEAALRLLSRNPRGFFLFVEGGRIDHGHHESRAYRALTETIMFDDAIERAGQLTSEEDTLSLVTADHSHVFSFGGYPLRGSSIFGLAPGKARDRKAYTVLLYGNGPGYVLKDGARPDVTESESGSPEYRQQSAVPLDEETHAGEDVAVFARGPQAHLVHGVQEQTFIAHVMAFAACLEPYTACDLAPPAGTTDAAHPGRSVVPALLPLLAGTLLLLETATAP
row,Structure (SMILES),IC50
1,CC1=NN(Cc2ccccc2)C(=O)/C1=C\c1ccc(N(C)C)cc1,18.3 µM
2,CCOC(=O)SC1=N/C(=C\c2ccc(N(C)C)cc2)C(=O)S1,47.4 µM
3,Oc1ccc(C2=Nn3c(nnc3-c3ccco3)SC2)cc1O,21.5 µM
4,O=C1Nc2ccc(Br)cc2/C1=N/N=C/C1=C(N2CCOCC2)C(=C\c2ccccc2)/CC1,45.6 µM
5,CNc1nnc(-c2cc3ccccc3oc2=O)s1,2.85 µM
6,CC1CCCC/C1=N/Nc1ccc([N+](=O)[O-])cc1[N+](=O)[O-] (stereo not given),7.24 µM
7,COCCNC(=O)NC1(C(F)(F)F)Oc2ccc(Cl)cc2O1 (stereo not given),12.3 µM
8,COC(=O)c1ccc2c(c1)C(C)(C)C(/C=C/c1ccccc1O)=[N+]2C,15 µM
9,CCCCOc1ccc(CSC(=N)N)cc1[N+](=O)[O-],78.3 µM
10,COc1cc(/C=C2\N=C3CCCCCN3C2=O)ccc1O,25.6 µM
11,Cc1[nH]c2ccccc2c1/C=C/c1cc[n+](C)cc1,29.1 µM
12,COC(=O)C(N)Cc1ccc(O)c(O)c1 (stereo not given),10.2 µM
13,Clc1ccc(CSc2nnnn2-c2ccc3c(c2)OCO3)c(Cl)c1,73.3 µM
14,O=C(NC1(C(F)(F)F)Oc2ccc(Cl)cc2O1)N1CCC2(CC1)OCCO2 (stereo not given),4.87 µM
15,CCN1/C(=C\C=C\C2=[N+](CC)c3ccccc3C2(C)C)C(C)(C)c2ccccc21,22 µM
16,Oc1ccc(CC2CC3CCN2CC3)cc1O (stereo not given),36 µM
17,c1ccc(-n2ncc3c2ncn2cnnc32)cc1,2.11 µM
18,COc1cc(/C=C2/CCC/C(=C\c3cc(O)c(OC)c(Cl)c3)C2=O)cc(Cl)c1O,28.2 µM
19,COc1cccc(-c2nnc3n2N=C(c2cccc(Br)c2)CS3)c1,76.1 µM
20,O=C(CSc1nc2ccccc2c(=O)[nH]1)c1ccc(O)c(O)c1,9.59 µM

row,Structure (SMILES),IC50
1,COC(=O)C1=C(O)/C(=C\c2ccc(O)c(OC)c2)N=C1C,28.8 µM
2,C=CCn1c(SCC(=O)c2ccc(O)c(O)c2)nnc1-c1ccccc1OC,1.55 µM
3,O=C1C2CC=CCC2C(=O)N1c1n[nH]c(-c2ccccc2)n1 (stereo not given),8.77 µM
4,CCn1c(CSc2nc3ccccc3s2)nnc1SCC(=O)c1ccc(O)c(O)c1,1.52 µM
5,CC1(C)Cc2c(sc3nc4n(c(=N)c23)CCCCC4)CO1,1.88 µM
6,CN(C)CCNc1ncnc2ccccc12,71.3 µM
7,COC(=O)c1cn[nH]c1NC(=S)Nc1ccccc1C,19.3 µM
8,Cc1cc(C)nc(NN2C(=O)/C(=C/c3ccc(O)cc3)SC2=S)n1,18.8 µM
9,CN1C(=O)/C(=C\c2ccc(N3CCCCC3)o2)C(=O)NC1=S,10.1 µM
10,c1ccc(Nc2cccc(Nc3ccccc3)n2)cc1,65.4 µM
11,Cc1ccc(C)c(NC(=S)NC(NC(=O)Cc2cccc3ccccc23)C(Cl)(Cl)Cl)c1 (stereo not given),27.5 µM
12,O=C(C[n+]1ccc(C(=O)N/N=C/c2ccc(Br)cc2)cc1)c1ccccc1,34.3 µM
13,Cc1nn(-c2ccccc2)c(C)c1/C=N/NC(=O)c1cc(-c2ccccc2)n[nH]1,7.34 µM
14,O=C1C2C3C=CC(C3)C2C(=O)N1c1n[nH]c(-c2cccnc2)n1 (stereo not given),29.8 µM
15,CCn1c(SCC(=O)c2ccc(O)c(O)c2)nnc1-c1ccccc1OC,4.36 µM
16,COc1cccc(OCCNc2cc(Cl)ccc2[N+](=O)[O-])c1,60.7 µM
17,COc1cc(/C=C(/C(=O)c2cccs2)c2nc3ccccc3[nH]2)cc(OC)c1O,20.4 µM
18,CN1c2ccccc2C(C)(C)[C@]12C=Cc1cc(O)ccc1O2,43.9 µM
19,O=C(Nc1cc(N2CCOCC2)ncn1)NC1(C(F)(F)F)Oc2ccc(Cl)cc2O1 (stereo not given),12.7 µM
20,CCn1c(SCC(=O)c2ccc(O)c(O)c2)nnc1-c1ccccc1,4.25 µM
